Results on eleven compounds are retold here after ChEMBL document CHEMBL1153012, “Synthesis and antibacterial activity of novel 5-(4-methyl-1H-1,2,3-triazole) methyl oxazolidinones” (2009).

Values after ≈ are worked out from the molar mass of the structure shown.

Common to all, as to assay type: functional
In experiment [1] the test system is Staphylococcus. The experiment is described as follows: Antibacterial activity against methicillin-sensitive coagulase-negative Staphylococcus by agar dilution method. For orientation: In agar dilution the substance is mixed into plates at graded concentrations.
The subject of experiment [2] is Staphylococcus. Kind of experiment: Antibacterial activity against methicillin resistant coagulase-negative Staphylococcus by agar dilution method.
Experiment [3] relates to Moraxella catarrhalis. Kind of experiment: Antibacterial activity against Moraxella catarrhalis by agar dilution method.
Experiment [4] deals with Haemophilus influenzae. Kind of experiment: Antibacterial activity against Haemophilus influenzae isolate 283 by agar dilution method.
In experiment [5] the test system is Haemophilus influenzae. Kind of experiment: Antibacterial activity against Haemophilus influenzae ATCC 49247 by agar dilution method.
For experiment [6], the system named is Enterococcus. The experiment is described as follows: Antibacterial activity against vancomycin-sensitive Enterococcus by agar dilution method.
Experiment [7] concerns Streptococcus pneumoniae. Kind of experiment: Antibacterial activity against Streptococcus pneumoniae by agar dilution method.
Experiment [8] has as its system Staphylococcus aureus. The experiment is described as follows: Antibacterial activity against methicillin-susceptible Staphylococcus aureus by agar dilution method.
The test system of experiment [9] is Haemophilus influenzae. The experiment is described as follows: Antibacterial activity against Haemophilus influenzae isolate 282 by agar dilution method.
The test system of experiment [10] is Enterococcus. The experiment is described as follows: Antibacterial activity against vancomycin-resistant Enterococcus by agar dilution method.
Experiment [11] deals with Escherichia coli. Kind of experiment: Antibacterial activity against Escherichia coli ATCC 25922 by agar dilution method.
Experiment [12] deals with Staphylococcus aureus. Kind of experiment: Antibacterial activity against Staphylococcus aureus ATCC 25923 by agar dilution method.
The subject of experiment [13] is Haemophilus influenzae. Kind of experiment: Antibacterial activity against Haemophilus influenzae isolate 280 by agar dilution method.
In experiment [14] the test system is Staphylococcus aureus. Kind of experiment: Antibacterial activity against Staphylococcus aureus ATCC 25923 by agar dilution method in presence of human plasma. The conditions noted are these: ATCC 25923, Plasma.
Experiment [15] deals with Staphylococcus aureus. Kind of experiment: Antibacterial activity against methicillin-resistant Staphylococcus aureus by agar dilution method.
For experiment [16], the system named is Haemophilus influenzae. Kind of experiment: Antibacterial activity against Haemophilus influenzae isolate 285 by agar dilution method.

Consider `O=C1O[C@@H](Cn2ccnn2)CN1c1ccc(N2CCOCC2)c(F)c1`, for which the MIC in [1] is 0.5 µg/mL (≈ 1.44 µM); in [2] it was 0.5 µg/mL (≈ 1.44 µM); in [3], above 16 µg/mL; in experiment [4], 32 µg/mL (≈ 92.1 µM); in [5] it was 32 µg/mL (≈ 92.1 µM); in [6] it was 0.5 µg/mL (≈ 1.44 µM). For the same compound, the MIC was 0.5 µg/mL (≈ 1.44 µM) in experiment [7]; 0.5 µg/mL (≈ 1.44 µM) in [8]; 32 µg/mL (≈ 92.1 µM) in experiment [9]; 1 µg/mL (≈ 2.88 µM) in experiment [10]; above 64 µg/mL in experiment [11]; 1 µg/mL (≈ 2.88 µM) in experiment [12]. Besides, the MIC in [13] stood at 32 µg/mL (≈ 92.1 µM); in experiment [14], 1 µg/mL; in [15], 0.5 µg/mL (≈ 1.44 µM); in experiment [16] it was 32 µg/mL (≈ 92.1 µM).
`CC(=O)N1CCN(c2ccc(N3C[C@H](Cn4cc(C)nn4)OC3=O)cc2F)CC1`: the MIC in [1] came to 1 µg/mL (≈ 2.48 µM); in experiment [2] it was 1 µg/mL (≈ 2.48 µM); in experiment [3], 8 µg/mL (≈ 19.9 µM); in [4] it was 64 µg/mL (≈ 159 µM); in [5], 64 µg/mL (≈ 159 µM); in experiment [6] it was 1 µg/mL (≈ 2.48 µM). The MIC is 1 µg/mL (≈ 2.48 µM) in [7]; 1 µg/mL (≈ 2.48 µM) in experiment [8]; 64 µg/mL (≈ 159 µM) in experiment [9]; 1 µg/mL (≈ 2.48 µM) in experiment [10]; above 64 µg/mL in [11]; 2 µg/mL (≈ 4.97 µM) in [12]. Besides, the MIC is 64 µg/mL (≈ 159 µM) in experiment [13], 8 µg/mL in experiment [14], 1 µg/mL (≈ 2.48 µM) in [15] and 64 µg/mL (≈ 159 µM) in [16].
In the case of `CCC(=O)N1CCN(c2ccc(N3C[C@H](Cn4cc(C)nn4)OC3=O)cc2F)CC1`, the MIC in experiment [1] came to 1 µg/mL (≈ 2.4 µM); in experiment [2], 1 µg/mL (≈ 2.4 µM); in experiment [3], 16 µg/mL (≈ 38.4 µM); in [4], 32 µg/mL (≈ 76.8 µM); in experiment [5] it was 32 µg/mL (≈ 76.8 µM); in [6], 1 µg/mL (≈ 2.4 µM). Further, the MIC in experiment [7] was 1 µg/mL (≈ 2.4 µM); in experiment [8], 1 µg/mL (≈ 2.4 µM); in experiment [9], 32 µg/mL (≈ 76.8 µM); in experiment [10], 1 µg/mL (≈ 2.4 µM); in experiment [11], above 64 µg/mL; in experiment [12], 2 µg/mL (≈ 4.8 µM). The MIC in experiment [13] stood at 32 µg/mL (≈ 76.8 µM); in experiment [14], 8 µg/mL; in experiment [15], 1 µg/mL (≈ 2.4 µM); in experiment [16] it was 32 µg/mL (≈ 76.8 µM).
For `Cc1cn(C[C@H]2CN(c3ccc(N4CCN(C(=O)OC(C)(C)C)CC4)c(F)c3)C(=O)O2)nn1`, the MIC in [3] is 64 µg/mL (≈ 139 µM); in experiment [4], above 64 µg/mL; in experiment [5], above 64 µg/mL; in experiment [7], 8 µg/mL (≈ 17.4 µM); in experiment [8], 2 µg/mL (≈ 4.34 µM); in experiment [9], above 64 µg/mL. The MIC is above 64 µg/mL in experiment [11], above 64 µg/mL in experiment [13], 64 µg/mL in experiment [14] and above 64 µg/mL in [16].
Take `Cc1cn(C[C@H]2CN(c3ccc(N4CCN(C(=O)C(Cl)(Cl)Cl)CC4)c(F)c3)C(=O)O2)nn1`: the MIC in [1] was 1 µg/mL (≈ 1.98 µM); in experiment [2] it was 1 µg/mL (≈ 1.98 µM); in [3], 32 µg/mL (≈ 63.3 µM); in experiment [4], above 64 µg/mL; in experiment [5] it was above 64 µg/mL; in experiment [6], 1 µg/mL (≈ 1.98 µM). For the same compound, the MIC was 4 µg/mL (≈ 7.91 µM) in experiment [7]; 1 µg/mL (≈ 1.98 µM) in [8]; above 64 µg/mL in experiment [9]; 1 µg/mL (≈ 1.98 µM) in experiment [10]; above 64 µg/mL in experiment [11]; 1 µg/mL (≈ 1.98 µM) in [12]. In addition, the MIC in [13] was above 64 µg/mL; in experiment [14] it was 16 µg/mL; in experiment [15] it was 1 µg/mL (≈ 1.98 µM); in [16], above 64 µg/mL.
For `CCOC(=O)N1CCN(c2ccc(N3C[C@H](Cn4cc(C)nn4)OC3=O)cc2F)CC1`, the MIC came out at 1 µg/mL (≈ 2.31 µM) in [1]; 1 µg/mL (≈ 2.31 µM) in experiment [2]; 16 µg/mL (≈ 37 µM) in experiment [3]; 64 µg/mL (≈ 148 µM) in [4]; 64 µg/mL (≈ 148 µM) in experiment [5]; 1 µg/mL (≈ 2.31 µM) in [6]. The MIC was 4 µg/mL (≈ 9.25 µM) in [7]; 1 µg/mL (≈ 2.31 µM) in [8]; 64 µg/mL (≈ 148 µM) in experiment [9]; 1 µg/mL (≈ 2.31 µM) in [10]; above 64 µg/mL in [11]; 1 µg/mL (≈ 2.31 µM) in experiment [12]. Moreover, the MIC in experiment [13] was determined as 64 µg/mL (≈ 148 µM); in experiment [14], 32 µg/mL; in [15], 1 µg/mL (≈ 2.31 µM); in experiment [16], 64 µg/mL (≈ 148 µM).
As to `CCSC(=O)N1CCN(c2ccc(N3C[C@H](Cn4cc(C)nn4)OC3=O)cc2F)CC1`, the MIC in [1] was 1 µg/mL (≈ 2.23 µM); in experiment [2], 1 µg/mL (≈ 2.23 µM); in [3] it was 16 µg/mL (≈ 35.7 µM); in [4], above 64 µg/mL; in experiment [5] it was above 64 µg/mL; in [6] it was 1 µg/mL (≈ 2.23 µM). For the same compound, the MIC in [7] is 2 µg/mL (≈ 4.46 µM); in [8], 1 µg/mL (≈ 2.23 µM); in experiment [9], above 64 µg/mL; in [10], 1 µg/mL (≈ 2.23 µM); in experiment [11] it was above 64 µg/mL; in [12], 2 µg/mL (≈ 4.46 µM). The MIC is above 64 µg/mL in experiment [13], 64 µg/mL in experiment [14], 1 µg/mL (≈ 2.23 µM) in experiment [15] and above 64 µg/mL in experiment [16].
In the case of `Cc1cn(C[C@H]2CN(c3ccc(N4CCN(C(=O)C(C)C)CC4)c(F)c3)C(=O)O2)nn1`, the MIC in [1] was 0.5 µg/mL (≈ 1.16 µM); in [2], 0.5 µg/mL (≈ 1.16 µM); in experiment [3] it was 16 µg/mL (≈ 37.2 µM); in experiment [4], above 64 µg/mL; in experiment [5], above 64 µg/mL; in experiment [6] it was 1 µg/mL (≈ 2.32 µM). Also, the MIC is 2 µg/mL (≈ 4.65 µM) in [7]; 1 µg/mL (≈ 2.32 µM) in experiment [8]; above 64 µg/mL in experiment [9]; 0.5 µg/mL (≈ 1.16 µM) in experiment [10]; above 64 µg/mL in experiment [11]; 1 µg/mL (≈ 2.32 µM) in experiment [12]. Also, the MIC was above 64 µg/mL in [13], 16 µg/mL in experiment [14], 0.5 µg/mL (≈ 1.16 µM) in [15] and above 64 µg/mL in experiment [16].
Regarding `Cc1cn(C[C@H]2CN(c3ccc(N4CCN(C=O)CC4)c(F)c3)C(=O)O2)nn1`, the MIC was determined as 1 µg/mL (≈ 2.57 µM) in [1]; 1 µg/mL (≈ 2.57 µM) in experiment [2]; 8 µg/mL (≈ 20.6 µM) in experiment [3]; 64 µg/mL (≈ 165 µM) in [4]; 64 µg/mL (≈ 165 µM) in [5]; 1 µg/mL (≈ 2.57 µM) in experiment [6]. Also, the MIC in experiment [7] is 1 µg/mL (≈ 2.57 µM); in experiment [8], 1 µg/mL (≈ 2.57 µM); in [9], 64 µg/mL (≈ 165 µM); in [10], 1 µg/mL (≈ 2.57 µM); in [11], above 64 µg/mL; in [12], 2 µg/mL (≈ 5.15 µM). The MIC in experiment [13] was 64 µg/mL (≈ 165 µM); in experiment [14], 8 µg/mL; in [15] it was 1 µg/mL (≈ 2.57 µM); in [16], 64 µg/mL (≈ 165 µM).
In the case of `CC(=O)NC[C@H]1CN(c2ccc(N3CCOCC3)c(F)c2)C(=O)O1` [LINEZOLID], the MIC was found to be 0.5 µg/mL (≈ 1.48 µM) in experiment [1]; 0.5 µg/mL (≈ 1.48 µM) in [2]; 8 µg/mL (≈ 23.7 µM) in experiment [3]; 16 µg/mL (≈ 47.4 µM) in experiment [4]; 8 µg/mL (≈ 23.7 µM) in experiment [5]; 0.5 µg/mL (≈ 1.48 µM) in experiment [6]. The MIC is 0.5 µg/mL (≈ 1.48 µM) in experiment [8]; 16 µg/mL (≈ 47.4 µM) in experiment [9]; 0.5 µg/mL (≈ 1.48 µM) in experiment [10]; above 64 µg/mL in [11]; 8 µg/mL (≈ 23.7 µM) in [13]; 0.5 µg/mL (≈ 1.48 µM) in experiment [15]. Further, the MIC in [16] was found to be 8 µg/mL (≈ 23.7 µM).
Regarding `CN[C@H](CC(C)C)C(=O)N[C@H]1C(=O)N[C@@H](CC(N)=O)C(=O)N[C@H]2C(=O)N[C@H]3C(=O)N[C@H](C(=O)N[C@H](C(=O)O)c4cc(O)cc(O)c4-c4cc3ccc4O)[C@H](O)c3ccc(c(Cl)c3)Oc3cc2cc(c3O[C@@H]2O[C@H](CO)[C@@H](O)[C@H](O)[C@H]2O[C@H]2C[C@](C)(N)[C@H](O)[C@H](C)O2)Oc2ccc(cc2Cl)[C@H]1O` [VANCOMYCIN], the MIC in experiment [1] is 1 µg/mL (≈ 0.69 µM); in [2], 1 µg/mL (≈ 0.69 µM); in [3], above 16 µg/mL; in experiment [4], above 16 µg/mL; in [5], above 16 µg/mL; in [6], 0.25 µg/mL (≈ 0.173 µM). The MIC was 0.5 µg/mL (≈ 0.345 µM) in [7]; above 16 µg/mL in experiment [9]; above 64 µg/mL in experiment [10]; above 64 µg/mL in experiment [11]; above 16 µg/mL in experiment [13]; above 16 µg/mL in experiment [16].
